Assay results taken from ChEMBL document CHEMBL1649254, “A Ser29Leu substitution in the cytosine deaminase Fca1p is responsible for clade-specific flucytosine resistance in Candida dubliniensis” (2009).
In brackets after ≈: the same amount, converted by molar mass.

How the values were obtained:
Type in all cases: functional
Candida dubliniensis [1] = experiment: […] activity against Candida dubliniensis isolate SA121 of Cd25 fingerprint group 3 and ITS genotype 4 by CLSI M27-A2 method
Candida dubliniensis [2] = experiment: […] activity against Candida dubliniensis isolate SA118 of Cd25 fingerprint group 3 and ITS genotype 3 by CLSI M27-A2 method
Candida dubliniensis [3] = experiment: […] activity against Candida dubliniensis isolate SA113 of Cd25 fingerprint group 3 and ITS genotype 4 by CLSI M27-A2 method
Candida dubliniensis [4] = experiment: […] activity against Candida dubliniensis isolate SA109 of Cd25 fingerprint group 3 and ITS genotype 3 by CLSI M27-A2 method
Candida dubliniensis [5] = experiment: […] activity against Candida dubliniensis isolate SA108 of Cd25 fingerprint group 3 and ITS genotype 3 by CLSI M27-A2 method
Candida dubliniensis [6] = experiment: […] activity against Candida dubliniensis isolate SA103 of Cd25 fingerprint group 3 and ITS genotype 3 by CLSI M27-A2 method
Candida dubliniensis [7] = experiment: […] activity against Candida dubliniensis isolate SA107 of Cd25 fingerprint group 3 and ITS genotype 3 by CLSI M27-A2 method
Candida dubliniensis [8] = experiment: […] activity against Candida dubliniensis isolate SA100 of Cd25 fingerprint group 3 and ITS genotype 3 by CLSI M27-A2 method
Candida dubliniensis [9] = experiment: […] activity against Candida dubliniensis isolate Eg207 of Cd25 fingerprint group 3 and ITS genotype 4 by CLSI M27-A2 method
Candida dubliniensis [10] = experiment: […] activity against Candida dubliniensis isolate Eg202 of Cd25 fingerprint group 3 and ITS genotype 4 by CLSI M27-A2 method
Candida dubliniensis [11] = experiment: […] activity against Candida dubliniensis isolate Eg201 of Cd25 fingerprint group 3 and ITS genotype 4 by CLSI M27-A2 method
Candida dubliniensis [12] = experiment: […] activity against Candida dubliniensis isolate Eg200 of Cd25 fingerprint group 3 and ITS genotype 4 by CLSI M27-A2 method
Candida dubliniensis [13] = experiment: […] activity against Candida dubliniensis isolate p7718 of Cd25 fingerprint group 3 and ITS genotype 4 by CLSI M27-A2 method
Candida dubliniensis [14] = experiment: […] activity against Candida dubliniensis isolate p6785 of Cd25 fingerprint group 2 and ITS genotype 3 by CLSI M27-A2 method
Candida dubliniensis [15] = experiment: […] activity against Candida dubliniensis isolate p7276 of Cd25 fingerprint group 2 and ITS genotype 3 by CLSI M27-A2 method
Candida dubliniensis [16] = experiment: […] activity against Candida dubliniensis isolate Eg206 of Cd25 fingerprint group 1 and ITS genotype 1 by CLSI M27-A2 method
Candida dubliniensis [17] = experiment: […] activity against Candida dubliniensis isolate Eg203 of Cd25 fingerprint group 1 and ITS genotype 1 by CLSI M27-A2 method
Candida dubliniensis [18] = experiment: […] activity against Candida dubliniensis isolate SA115 of Cd25 fingerprint group 1 and ITS genotype 1 by CLSI M27-A2 method
Candida dubliniensis [19] = experiment: […] activity against Candida dubliniensis isolate SA105 of Cd25 fingerprint group 1 and ITS genotype 1 by CLSI M27-A2 method
Candida dubliniensis [20] = experiment: […] activity against Candida dubliniensis isolate SA101 of Cd25 fingerprint group 1 and ITS genotype 1 by CLSI M27-A2 method
Candida dubliniensis [21] = experiment: […] activity against Candida dubliniensis isolate CD36b of Cd25 fingerprint group 1 and ITS genotype 1 by CLSI M27-A2 method
Candida dubliniensis [22] = experiment: […] activity against 5FC- […] Candida dubliniensis isolate SA109T1 harboring plasmid pNIM1 carrying CdFCA1 gene by broth microdilution method in presence of 30 ug/ml DOX
Candida dubliniensis [23] = experiment: […] activity against 5FC- resistant Candida dubliniensis isolate harboring plasmid p7276T3 carrying CdFCA1 gene by broth microdilution method in presence of 30 ug/ml DOX
Candida dubliniensis [24] = experiment: […] activity against 5FC- resistant Candida dubliniensis isolate harboring plasmid p7276T2 carrying CdFCA1 gene by broth microdilution method in presence of 30 ug/ml DOX
Candida dubliniensis [25] = experiment: […] activity against 5FC- resistant Candida dubliniensis isolate harboring plasmid p7276T1 carrying CdFCA1 gene by broth microdilution method in presence of 30 ug/ml DOX
Candida dubliniensis [26] = experiment: […] activity against Candida dubliniensis harboring plasmid p7276 by broth microdilution method in presence of 30 ug/ml DOX
Candida dubliniensis [27] = experiment: […] activity against Candida dubliniensis isolate SA109 by broth microdilution method in presence of 30 ug/ml DOX
Candida dubliniensis [28] = experiment: […] activity against Candida dubliniensis isolate SA113 by broth microdilution method in presence of 30 ug/ml DOX
Candida dubliniensis [29] = experiment: […] activity against Candida dubliniensis isolate harboring plasmid p7276 carrying GFP1T1 gene by broth microdilution method in presence of 25 ug/ml DOX
Candida dubliniensis [30] = experiment: […] activity against 5FC- […] Candida dubliniensis isolate SA113T1 harboring plasmid pNIM1 carrying CdFCA1 gene by broth microdilution method in presence of 25 ug/ml DOX
Candida dubliniensis [31] = experiment: […] activity against 5FC- […] Candida dubliniensis isolate SA109T2 harboring plasmid pNIM1 carrying CdFCA1 gene by broth microdilution method in presence of 25 ug/ml DOX
Candida dubliniensis [32] = experiment: […] activity against 5FC- […] Candida dubliniensis isolate SA109T1 harboring plasmid pNIM1 carrying CdFCA1 gene by broth microdilution method in presence of 25 ug/ml DOX
Candida dubliniensis [33] = experiment: […] activity against 5FC- resistant Candida dubliniensis isolate harboring plasmid p7276T3 carrying CdFCA1 gene by broth microdilution method in presence of 25 ug/ml DOX
Candida dubliniensis [34] = experiment: […] activity against 5FC- resistant Candida dubliniensis isolate harboring plasmid p7276T2 carrying CdFCA1 gene by broth microdilution method in presence of 25 ug/ml DOX
Candida dubliniensis [35] = experiment: […] activity against 5FC- resistant Candida dubliniensis isolate harboring plasmid p7276T1 carrying CdFCA1 gene by broth microdilution method in presence of 25 ug/ml DOX
Candida dubliniensis [36] = experiment: […] activity against Candida dubliniensis harboring plasmid p7276 by broth microdilution method in presence of 25 ug/ml DOX
Candida dubliniensis [37] = experiment: […] activity against Candida dubliniensis isolate SA109 by broth microdilution method in presence of 25 ug/ml DOX
Candida dubliniensis [38] = experiment: […] activity against Candida dubliniensis isolate SA113 by broth microdilution method in presence of 25 ug/ml DOX
Candida dubliniensis [39] = experiment: […] activity against Candida dubliniensis isolate harboring plasmid p7276 carrying GFP1T1 gene by broth microdilution method
Candida dubliniensis [40] = experiment: […] activity against 5FC- susceptible Candida dubliniensis isolate SA113T1 harboring plasmid pNIM1 carrying CdFCA1 gene by broth microdilution method
Candida dubliniensis [41] = experiment: […] activity against 5FC- […] Candida dubliniensis isolate SA109T2 harboring plasmid pNIM1 carrying CdFCA1 gene by broth microdilution method
Candida dubliniensis [42] = experiment: […] activity against 5FC- […] Candida dubliniensis isolate SA109T1 harboring plasmid pNIM1 carrying CdFCA1 gene by broth microdilution method
Candida dubliniensis [43] = experiment: […] activity against 5FC- resistant Candida dubliniensis isolate harboring plasmid p7276T3 carrying CdFCA1 gene by broth microdilution method
Candida dubliniensis [44] = experiment: […] activity against 5FC- resistant Candida dubliniensis isolate harboring plasmid p7276T2 carrying CdFCA1 gene by broth microdilution method
Candida dubliniensis [45] = experiment: […] activity against 5FC- resistant Candida dubliniensis isolate harboring plasmid p7276T1 carrying CdFCA1 gene by broth microdilution method
Candida dubliniensis [46] = experiment: […] activity against Candida dubliniensis harboring plasmid p7276 by broth microdilution method
Candida dubliniensis [47] = experiment: […] activity against Candida dubliniensis isolate SA109 by broth microdilution method
Candida dubliniensis [48] = experiment: […] activity against Candida dubliniensis isolate SA113 by broth microdilution method
Candida albicans [49] = experiment: […] activity against Candida albicans harboring Gly28Asp substitution in the cytosine deaminase gene by EUCAST method
Candida albicans [50] = experiment: […] activity against Candida albicans harboring Ser29Leu substitution in the cytosine deaminase gene by EUCAST method
Candida dubliniensis [51] = experiment: […] activity against 5FC-resistant Candida dubliniensis by NCCLS M27-A2 broth microdilution method
Candida dubliniensis [52] = experiment: […] activity against 5FC-susceptible Candida dubliniensis by NCCLS M27-A2 broth microdilution method
Candida albicans [53] = experiment: […] activity against Candida albicans by EUCAST method
Candida dubliniensis [54] = experiment: […] activity against 5FC- […] Candida dubliniensis isolate SA109T2 harboring plasmid pNIM1 carrying CdFCA1 gene by broth microdilution method in presence of 30 ug/ml DOX
Candida dubliniensis [55] = experiment: […] activity against 5FC- susceptible Candida dubliniensis isolate SA113T1 harboring plasmid pNIM1 carrying CdFCA1 gene by broth microdilution method in presence of 30 ug/ml DOX
Candida dubliniensis [56] = experiment: […] activity against Candida dubliniensis isolate harboring plasmid p7276 carrying GFP1T1 gene by broth microdilution method in presence of 30 ug/ml DOX

## O=c1[nH]cc(F)c(=O)[nH]1 [FLUOROURACIL]
Candida dubliniensis [1]
  MIC: 32 µg/mL (≈ 246 µM)
Candida dubliniensis [2]
  MIC: 32 µg/mL (≈ 246 µM)
Candida dubliniensis [3]
  MIC: 32 µg/mL (≈ 246 µM)
Candida dubliniensis [4]
  MIC: 8 µg/mL (≈ 61.5 µM)
Candida dubliniensis [5]
  MIC: 32 µg/mL (≈ 246 µM)
Candida dubliniensis [6]
  MIC: 32 µg/mL (≈ 246 µM)
Candida dubliniensis [7]
  MIC: 32 µg/mL (≈ 246 µM)
Candida dubliniensis [8]
  MIC: 32 µg/mL (≈ 246 µM)
Candida dubliniensis [9]
  MIC: 32 µg/mL (≈ 246 µM)
Candida dubliniensis [10]
  MIC: 32 µg/mL (≈ 246 µM)
Candida dubliniensis [11]
  MIC: 32 µg/mL (≈ 246 µM)
Candida dubliniensis [12]
  MIC: 8 µg/mL (≈ 61.5 µM)
Candida dubliniensis [13]
  MIC: 16 µg/mL (≈ 123 µM)
Candida dubliniensis [14]
  MIC: 16 µg/mL (≈ 123 µM)
Candida dubliniensis [15]
  MIC: 8 µg/mL (≈ 61.5 µM)
Candida dubliniensis [16]
  MIC: 32 µg/mL (≈ 246 µM)
Candida dubliniensis [17]
  MIC: 16 µg/mL (≈ 123 µM)
Candida dubliniensis [18]
  MIC: 32 µg/mL (≈ 246 µM)
Candida dubliniensis [19]
  MIC: 32 µg/mL (≈ 246 µM)
Candida dubliniensis [20]
  MIC: 16 µg/mL (≈ 123 µM)
Candida dubliniensis [21]
  MIC: 32 µg/mL (≈ 246 µM)

## Nc1nc(=O)[nH]cc1F [FLUCYTOSINE]
Candida dubliniensis [22]
  MIC: ≤ 0.25 µg/mL
Candida dubliniensis [23]
  MIC: ≤ 0.25 µg/mL
Candida dubliniensis [24]
  MIC: ≤ 0.25 µg/mL
Candida dubliniensis [25]
  MIC: ≤ 0.25 µg/mL
Candida dubliniensis [26]
  MIC: ≤ 0.25 µg/mL
Candida dubliniensis [27]
  MIC: ≥ 128 µg/mL
Candida dubliniensis [28]
  MIC: ≥ 128 µg/mL
Candida dubliniensis [29]
  MIC: ≤ 0.25 µg/mL
Candida dubliniensis [30]
  MIC: ≤ 0.25 µg/mL
Candida dubliniensis [31]
  MIC: ≤ 0.25 µg/mL
Candida dubliniensis [32]
  MIC: ≤ 0.25 µg/mL
Candida dubliniensis [33]
  MIC: ≤ 0.25 µg/mL
Candida dubliniensis [34]
  MIC: ≤ 0.25 µg/mL
Candida dubliniensis [35]
  MIC: ≤ 0.25 µg/mL
Candida dubliniensis [36]
  MIC: ≤ 0.25 µg/mL
Candida dubliniensis [37]
  MIC: ≥ 128 µg/mL
Candida dubliniensis [38]
  MIC: ≥ 128 µg/mL
Candida dubliniensis [39]
  MIC: ≤ 0.25 µg/mL
Candida dubliniensis [40]
  MIC: ≥ 128 µg/mL
Candida dubliniensis [41]
  MIC: ≥ 128 µg/mL
Candida dubliniensis [42]
  MIC: ≥ 128 µg/mL
Candida dubliniensis [43]
  MIC: ≤ 0.25 µg/mL
Candida dubliniensis [44]
  MIC: ≤ 0.25 µg/mL
Candida dubliniensis [45]
  MIC: ≤ 0.25 µg/mL
Candida dubliniensis [46]
  MIC: ≤ 0.25 µg/mL
Candida dubliniensis [47]
  MIC: ≥ 128 µg/mL
Candida dubliniensis [48]
  MIC: ≥ 128 µg/mL
Candida dubliniensis [1]
  MIC: ≥ 128 µg/mL
Candida dubliniensis [2]
  MIC: ≥ 128 µg/mL
Candida dubliniensis [3]
  MIC: ≥ 128 µg/mL
Candida dubliniensis [4]
  MIC: ≥ 128 µg/mL
Candida dubliniensis [5]
  MIC: ≥ 128 µg/mL
Candida dubliniensis [6]
  MIC: ≥ 128 µg/mL
Candida dubliniensis [7]
  MIC: ≥ 128 µg/mL
Candida dubliniensis [8]
  MIC: ≥ 128 µg/mL
Candida dubliniensis [9]
  MIC: ≥ 128 µg/mL
Candida dubliniensis [10]
  MIC: ≥ 128 µg/mL
Candida dubliniensis [11]
  MIC: ≥ 128 µg/mL
Candida dubliniensis [12]
  MIC: ≥ 128 µg/mL
Candida dubliniensis [13]
  MIC: ≤ 0.25 µg/mL
Candida dubliniensis [14]
  MIC: ≤ 0.25 µg/mL
Candida dubliniensis [15]
  MIC: ≤ 0.25 µg/mL
Candida dubliniensis [16]
  MIC: ≤ 0.25 µg/mL
Candida dubliniensis [17]
  MIC: ≤ 0.25 µg/mL
Candida dubliniensis [18]
  MIC: ≤ 0.25 µg/mL
Candida dubliniensis [19]
  MIC: ≤ 0.25 µg/mL
Candida dubliniensis [20]
  MIC: ≤ 0.25 µg/mL
Candida dubliniensis [21]
  MIC: ≤ 0.25 µg/mL
Candida albicans [49]
  MIC: > 64 µg/mL
Candida albicans [50]
  MIC: 4 µg/mL (≈ 31 µM)
Candida dubliniensis [51]
  MIC: ≥ 128 µg/mL
Candida dubliniensis [52]
  MIC: ≤ 0.125 µg/mL
Candida albicans [53]
  MIC: ≥ 0.06 µg/mL
Candida dubliniensis [54]
  MIC: ≤ 0.25 µg/mL
Candida dubliniensis [55]
  MIC: ≤ 0.25 µg/mL
Candida dubliniensis [56]
  MIC: ≤ 0.25 µg/mL
